Data taken from the supplement of paper PMC10307832.

Legend:
Assay in all cases: relative viability (nuclei count vs DMSO), 5 days (fraction); higher = more cells survive
[1] = system: NCI-H1734
Method in brief: (§1)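 A single step with final 0.05% Triton X-100, 1% formaldehyde and 1 ug/ml Hoechst fixed the cells and stained nuclei 5 days after treatment. Lung cancer cell lines in 1536-well plates had been treated by pin tool the day after seeding with one drug alone or a fixed anchor-drug dose plus five library-drug doses (not always all listed) in √10 steps, and nuclei were counted on 4× images. Relative viability is the ratio of nuclei in treated wells to nuclei in vehicle wells, taken as the median of duplicate plates.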

[2] = system: EKVX
Method in brief: as §1

[3] = system: NCI-H838
Method in brief: as §1

[4] = system: SK-MES-1
Method in brief: as §1

[5] = system: NCI-H520
Method in brief: as §1

[6] = system: NCI-H1993
Method in brief: as §1

[7] = system: UMC-11
Method in brief: as §1

[8] = system: H3255
Method in brief: as §1

[9] = system: SK-LU-1
Method in brief: as §1

[10] = system: NCI-H2009
Method in brief: as §1

[11] = system: LC-2-ad
Method in brief: as §1

[12] = system: NCI-H1650
Method in brief: as §1

[13] = system: EMC-BAC-2
Method in brief: as §1

[14] = system: SW 1573
Method in brief: as §1

[15] = system: NCI-H2087
Method in brief: as §1

[16] = system: NCI-H661
Method in brief: as §1

[17] = system: LU99A
Method in brief: as §1

[18] = system: CAL-12T
Method in brief: as §1

[19] = system: BEN
Method in brief: as §1

[20] = system: NCI-H2085
Method in brief: as §1

[21] = system: NCI-H522
Method in brief: as §1

[22] = system: NCI-H1792
Method in brief: as §1

[23] = system: NCI-H2342
Method in brief: as §1

Structure (SMILES): Cc1cn(-c2cc(NC(=O)c3ccc(C)c(Nc4nccc(-c5cccnc5)n4)c3)cc(C(F)(F)F)c2)cn1 [Nilotinib] + Nc1nc2[nH]cc(CCc3ccc(C(=O)N[C@@H](CCC(=O)O)C(=O)O)cc3)c2c(=O)[nH]1 [Pemetrexed] (partner 0.2 µM)
- relative viability ([1]; first compound 0.001 µM): 0.443
- relative viability ([1]; first compound 0.003162 µM): 0.346
- relative viability ([1]; first compound 0.01 µM): 0.364
- relative viability ([1]; first compound 0.03162 µM): 0.388
- relative viability ([1]; first compound 0.1 µM): 0.31
- relative viability ([2]; first compound 0.001 µM): 0.33
- relative viability ([2]; first compound 0.003162 µM): 0.27
- relative viability ([2]; first compound 0.01 µM): 0.471
- relative viability ([2]; first compound 0.03162 µM): 0.353
- relative viability ([3]; first compound 0.001 µM): 0.246
- relative viability ([3]; first compound 0.003162 µM): 0.258
- relative viability ([3]; first compound 0.01 µM): 0.261
- relative viability ([3]; first compound 0.03162 µM): 0.252
- relative viability ([3]; first compound 0.1 µM): 0.228
- relative viability ([4]; first compound 0.001 µM): 0.958
- relative viability ([4]; first compound 0.003162 µM): 0.841
- relative viability ([4]; first compound 0.01 µM): 1.05
- relative viability ([4]; first compound 0.03162 µM): 0.868
- relative viability ([4]; first compound 0.1 µM): 0.503
- relative viability ([5]; first compound 0.001 µM): 0.591
- relative viability ([5]; first compound 0.003162 µM): 0.674
- relative viability ([5]; first compound 0.01 µM): 0.717
- relative viability ([5]; first compound 0.03162 µM): 0.578
- relative viability ([5]; first compound 0.1 µM): 0.556
- relative viability ([6]; first compound 0.001 µM): 0.574
- relative viability ([6]; first compound 0.003162 µM): 0.685
- relative viability ([6]; first compound 0.01 µM): 0.649
- relative viability ([6]; first compound 0.03162 µM): 0.589
- relative viability ([6]; first compound 0.1 µM): 0.367
- relative viability ([7]; first compound 0.001 µM): 0.789
- relative viability ([7]; first compound 0.003162 µM): 0.914
- relative viability ([7]; first compound 0.01 µM): 0.857
- relative viability ([7]; first compound 0.03162 µM): 0.495
- relative viability ([7]; first compound 0.1 µM): 0.631
- relative viability ([8]; first compound 0.001 µM): 0.528
- relative viability ([8]; first compound 0.003162 µM): 0.671
- relative viability ([8]; first compound 0.01 µM): 0.578
- relative viability ([8]; first compound 0.03162 µM): 0.579
- relative viability ([8]; first compound 0.1 µM): 0.523
- relative viability ([9]; first compound 0.001 µM): 0.867
- relative viability ([9]; first compound 0.003162 µM): 1.09
- relative viability ([9]; first compound 0.01 µM): 0.949
- relative viability ([9]; first compound 0.03162 µM): 0.524
- relative viability ([9]; first compound 0.1 µM): 0.415
- relative viability ([10]; first compound 0.001 µM): 0.926
- relative viability ([10]; first compound 0.003162 µM): 0.964
- relative viability ([10]; first compound 0.01 µM): 0.919
- relative viability ([10]; first compound 0.03162 µM): 1.06
- relative viability ([10]; first compound 0.1 µM): 0.989
- relative viability ([11]; first compound 0.001 µM): 0.248
- relative viability ([11]; first compound 0.003162 µM): 0.251
- relative viability ([11]; first compound 0.01 µM): 0.257
- relative viability ([11]; first compound 0.03162 µM): 0.251
- relative viability ([11]; first compound 0.1 µM): 0.248
- relative viability ([12]; first compound 0.001 µM): 0.409
- relative viability ([12]; first compound 0.003162 µM): 0.526
- relative viability ([12]; first compound 0.01 µM): 0.39
- relative viability ([12]; first compound 0.03162 µM): 0.375
- relative viability ([12]; first compound 0.1 µM): 0.498
- relative viability ([13]; first compound 0.001 µM): 0.427
- relative viability ([13]; first compound 0.003162 µM): 0.618
- relative viability ([13]; first compound 0.01 µM): 0.471
- relative viability ([13]; first compound 0.03162 µM): 0.46
- relative viability ([13]; first compound 0.1 µM): 0.437
- relative viability ([14]; first compound 0.001 µM): 0.801
- relative viability ([14]; first compound 0.003162 µM): 0.994
- relative viability ([14]; first compound 0.01 µM): 0.91
- relative viability ([14]; first compound 0.03162 µM): 0.541
- relative viability ([14]; first compound 0.1 µM): 0.171
- relative viability ([15]; first compound 0.001 µM): 0.67
- relative viability ([15]; first compound 0.003162 µM): 0.745
- relative viability ([15]; first compound 0.01 µM): 0.555
- relative viability ([15]; first compound 0.03162 µM): 0.614
- relative viability ([15]; first compound 0.1 µM): 0.341
- relative viability ([16]; first compound 0.001 µM): 0.966
- relative viability ([16]; first compound 0.003162 µM): 1.03
- relative viability ([16]; first compound 0.01 µM): 1.07
- relative viability ([16]; first compound 0.03162 µM): 0.888
- relative viability ([16]; first compound 0.1 µM): 0.893
- relative viability ([17]; first compound 0.001 µM): 0.158
- relative viability ([17]; first compound 0.003162 µM): 0.202
- relative viability ([17]; first compound 0.01 µM): 0.177
- relative viability ([17]; first compound 0.03162 µM): 0.225
- relative viability ([17]; first compound 0.1 µM): 0.155
- relative viability ([18]; first compound 0.001 µM): 0.977
- relative viability ([18]; first compound 0.003162 µM): 1.48
- relative viability ([18]; first compound 0.01 µM): 1.34
- relative viability ([18]; first compound 0.03162 µM): 0.992
- relative viability ([18]; first compound 0.1 µM): 1.22
- relative viability ([19]; first compound 0.001 µM): 0.868
- relative viability ([19]; first compound 0.003162 µM): 0.715
- relative viability ([19]; first compound 0.01 µM): 0.614
- relative viability ([19]; first compound 0.03162 µM): 0.772
- relative viability ([19]; first compound 0.1 µM): 0.469
- relative viability ([20]; first compound 0.001 µM): 0.981
- relative viability ([20]; first compound 0.003162 µM): 0.907
- relative viability ([20]; first compound 0.01 µM): 1
- relative viability ([20]; first compound 0.03162 µM): 0.932
- relative viability ([20]; first compound 0.1 µM): 0.562
- relative viability ([21]; first compound 0.01 µM): 1.21
- relative viability ([21]; first compound 0.03162 µM): 0.949
- relative viability ([21]; first compound 0.1 µM): 0.792
- relative viability ([22]; first compound 0.001 µM): 0.623
- relative viability ([22]; first compound 0.003162 µM): 0.899
- relative viability ([22]; first compound 0.01 µM): 0.72
- relative viability ([22]; first compound 0.03162 µM): 0.525
- relative viability ([22]; first compound 0.1 µM): 0.709
- relative viability ([23]; first compound 0.001 µM): 0.718
- relative viability ([23]; first compound 0.003162 µM): 0.753
- relative viability ([23]; first compound 0.01 µM): 0.793
- relative viability ([23]; first compound 0.03162 µM): 0.718
- relative viability ([23]; first compound 0.1 µM): 0.428
